# The source made the active and inactive calls. The calls are words filed in the database; no cut-off is given here.
# Tests used:
# Staphylococcus aureus [1] = assay: Antibacterial activity against Staphylococcus aureus ATCC 29213 infected in C57BL6 mouse assessed as reduction in bacterial load at 6.56 mmol/L, administered topically at 2 hrs interval for 3 days; format: functional; details: time 3 day
# Staphylococcus aureus [2] = assay: Bactericidal activity against Staphylococcus aureus ATCC 29213 assessed as reduction in bacterial load at 4 time of MIC concentration preincubated for 60 mins followed by compound washout further subculturing and measured after 24 hrs by time-kill assay; format: functional; details: 1 h
# [3] = Cytotoxicity against mouse corneal fibroblast cells assessed as viability at 25 ug/ml after 24 hrs by CCK8 assay relative to control; format: cell-based; details: at 25 µg/mL, read-out: Activity
# Escherichia coli [4] = assay: Antibacterial activity against Escherichia coli ATCC 25922 assessed as reduction in bacterial growth after 24 hrs in presence of calcium ion by CLSI based broth micro dilution method; format: functional
# Escherichia coli [5] = assay: Antibacterial activity against Escherichia coli ATCC 25922 assessed as reduction in bacterial growth after 24 hrs by CLSI based broth micro dilution method; format: functional
# Staphylococcus aureus [6] = assay: Antibacterial activity against methicillin-resistant Staphylococcus aureus N315 assessed as reduction in bacterial growth after 24 hrs in presence of calcium ion by CLSI based broth micro dilution method; format: functional
# [7] = Cytotoxicity against human MDA-MB-231 cells assessed as viability at 25 ug/ml after 24 hrs by CCK8 assay relative to control; format: cell-based; details: at 25 µg/mL, read-out: Activity
# Cell membrane [8] = assay: Disruption of bacterial cell membrane in methicillin-resistant Staphylococcus aureus NCTC10442 measured for 1 hr by SYTOX green staining based assay
# Escherichia coli [9] = assay: Antibacterial activity against Escherichia coli ATCC 25922 assessed as reduction in bacterial growth after 24 hrs in presence of sodium ion by CLSI based broth micro dilution method; format: functional
# Staphylococcus aureus [10] = assay: Antibacterial activity against Staphylococcus aureus ATCC 29213 assessed as reduction in bacterial growth after 24 hrs in presence of magnesium ion by CLSI based broth micro dilution method; format: functional
# Staphylococcus aureus [11] = assay: Bactericidal activity against Staphylococcus aureus ATCC 29213 assessed as reduction in bacterial load at 2 time of MIC concentration preincubated for 120 mins followed by compound washout further subculturing and measured after 24 hrs by time-kill assay; format: functional; details: 2 h
# Staphylococcus aureus [12] = assay: Antibacterial activity against methicillin-resistant Staphylococcus aureus N315 assessed as reduction in bacterial growth after 24 hrs in presence of magnesium ion by CLSI based broth micro dilution method; format: functional
# Escherichia coli [13] = assay: Antibacterial activity against Escherichia coli ATCC 25922 assessed as reduction in bacterial growth after 24 hrs in presence of magnesium ion by CLSI based broth micro dilution method; format: functional
# Staphylococcus aureus [14] = assay: Antibacterial activity against Staphylococcus aureus ATCC 29213 assessed as reduction in bacterial growth after 24 hrs in presence of potassium ion by CLSI based broth micro dilution method; format: functional
# Staphylococcus aureus [15] = assay: Antibacterial activity against Staphylococcus aureus ATCC 29213 assessed as reduction in bacterial growth after 24 hrs by CLSI based broth micro dilution method; format: functional
# Cell membrane [16] = assay: Disruption of bacterial cell membrane in Staphylococcus aureus ATCC 29213 at 8 times of MIC measured for 2 hr by propidium iodide and SYTO9 dye based LIVE/DEAD bacterial viability assay
# Staphylococcus aureus [17] = assay: Antibacterial activity against methicillin-resistant Staphylococcus aureus NCTC10442 assessed as reduction in bacterial growth after 24 hrs in presence of sodium ion by CLSI based broth micro dilution method; format: functional
# Staphylococcus aureus [18] = assay: Antibacterial activity against methicillin-resistant Staphylococcus aureus N315 assessed as reduction in bacterial growth after 24 hrs in presence of sodium ion by CLSI based broth micro dilution method; format: functional
# Staphylococcus aureus [19] = assay: Antibacterial activity against Staphylococcus aureus ATCC 29213 infected in C57BL6 mouse assessed as reduction in bacterial burden at 6.56 mmol/L, administered topically at 2 hrs interval for 3 days relative to control; format: functional; parameters: scale not given: the % may be the effect or the level left; details: time 3 day
# Staphylococcus aureus [20] = assay: Antibacterial activity against methicillin-resistant Staphylococcus aureus NCTC10442 assessed as reduction in bacterial growth after 24 hrs in presence of potassium ion by CLSI based broth micro dilution method; format: functional
# Staphylococcus aureus [21] = assay: Antibacterial activity against methicillin-resistant Staphylococcus aureus NCTC10442 assessed as reduction in bacterial growth after 24 hrs in presence of magnesium ion by CLSI based broth micro dilution method; format: functional
# [22] = Cytotoxicity against mouse corneal fibroblast cells assessed as viability at 3.125 ug/ml after 24 hrs by CCK8 assay relative to control; format: cell-based; details: at 3.125 µg/mL, read-out: Activity
# Staphylococcus aureus [23] = assay: Bactericidal activity against Staphylococcus aureus ATCC 29213 assessed as reduction in bacterial load at MIC concentration preincubated for 120 mins followed by compound washout further subculturing and measured after 24 hrs by time-kill assay; format: functional; details: 2 h
# [24] = Cytotoxicity against mouse NCTC clone 929 cells assessed as viability at 12.5 ug/ml after 24 hrs by CCK8 assay relative to control; format: cell-based; details: at 12.5 µg/mL, read-out: Activity
# [25] = Cytotoxicity against mouse corneal fibroblast cells assessed as viability at 6.25 ug/ml after 24 hrs by CCK8 assay relative to control; format: cell-based; details: at 6.25 µg/mL, read-out: Activity
# [26] = Cytotoxicity against human MDA-MB-231 cells assessed as viability at 12.5 ug/ml after 24 hrs by CCK8 assay relative to control; format: cell-based; details: at 12.5 µg/mL, read-out: Activity
# [27] = Cytotoxicity against human MDA-MB-231 cells assessed as viability at 6.25 ug/ml after 24 hrs by CCK8 assay relative to control; format: cell-based; details: at 6.25 µg/mL, read-out: Activity
# [28] = Cytotoxicity against mouse NCTC clone 929 cells assessed as viability at 6.25 ug/ml after 24 hrs by CCK8 assay relative to control; format: cell-based; details: at 6.25 µg/mL, read-out: Activity
# Staphylococcus aureus [29] = assay: Antibacterial activity against Staphylococcus aureus ATCC 29213 assessed as reduction in bacterial growth after 24 hrs in presence of calcium ion by CLSI based broth micro dilution method; format: functional
# Staphylococcus aureus [30] = assay: Antibacterial activity against methicillin-resistant Staphylococcus aureus N315 assessed as reduction in bacterial growth after 24 hrs in presence of potassium ion by CLSI based broth micro dilution method; format: functional
# [31] = Cytotoxicity against mouse NCTC clone 929 cells assessed as viability at 25 ug/ml after 24 hrs by CCK8 assay relative to control; format: cell-based; details: at 25 µg/mL, read-out: Activity
# Staphylococcus aureus [32] = assay: Bactericidal activity against Staphylococcus aureus ATCC 29213 assessed as reduction in bacterial load at 8 time of MIC concentration preincubated for 30 mins followed by compound washout further subculturing and measured after 24 hrs by time-kill assay; format: functional; details: 0.5 h
# [33] = Hemolytic activity in rabbit RBC after 60 mins; format: ADME, cell-based, Oryctolagus cuniculus, Erythrocyte; details: rabbit red blood cells (erythrocytes)
# Staphylococcus aureus [34] = assay: Antibacterial activity against methicillin-resistant Staphylococcus aureus NCTC10442 assessed as reduction in bacterial growth after 24 hrs by CLSI based broth micro dilution method; format: functional
# Staphylococcus aureus [35] = assay: Antibacterial activity against Staphylococcus aureus ATCC 29213 assessed as reduction in bacterial growth at 0.5 time of MIC after 14 days passage by CLSI based broth micro dilution method; format: functional, organism-based; details: time 14.0 day
# Escherichia coli [36] = assay: Antibacterial activity against Escherichia coli ATCC 25922 assessed as reduction in bacterial growth after 24 hrs in presence of potassium ion by CLSI based broth micro dilution method; format: functional
# [37] = Cytotoxicity against mouse corneal fibroblast cells assessed as viability at 12.5 ug/ml after 24 hrs by CCK8 assay relative to control; format: cell-based; details: at 12.5 µg/mL, read-out: Activity
# Staphylococcus aureus [38] = assay: Antibacterial activity against methicillin-resistant Staphylococcus aureus N315 assessed as reduction in bacterial growth after 24 hrs by CLSI based broth micro dilution method; format: functional
# Staphylococcus aureus [39] = assay: Antibacterial activity against Staphylococcus aureus ATCC 29213 assessed as reduction in bacterial growth after 24 hrs in presence of sodium ion by CLSI based broth micro dilution method; format: functional
# Staphylococcus aureus [40] = assay: Antibacterial activity against methicillin-resistant Staphylococcus aureus NCTC10442 assessed as reduction in bacterial growth after 24 hrs in presence of calcium ion by CLSI based broth micro dilution method; format: functional
# Cell membrane [41] = assay: Disruption of bacterial cell membrane in Staphylococcus aureus ATCC 29213 measured for 1 hr by SYTOX green staining based assay
# [42] = Cytotoxicity against human MDA-MB-231 cells assessed as viability at 3.125 ug/ml after 24 hrs by CCK8 assay relative to control; format: cell-based; details: at 3.125 µg/mL, read-out: Activity
# [43] = Cytotoxicity against mouse NCTC clone 929 cells assessed as viability at 3.125 ug/ml after 24 hrs by CCK8 assay relative to control; format: cell-based; details: at 3.125 µg/mL, read-out: Activity
compound,measurement,setting,value
CC(C)=CCOc1ccc(/C=C/C(=O)c2ccc(OCC=C(C)C)cc2OCC(=O)N[C@@H](CCCNC(=N)N)C(=O)N[C@@H](CCCNC(=N)N)C(N)=O)cc1,log(activity),Staphylococcus aureus [1],4.34
same,log(activity),Staphylococcus aureus [2],3.25
same,"viability at 24 h, 25 ug/ml",[3],59.9%
same,MIC,Escherichia coli [4],6.25 µg/mL
same,MIC,Escherichia coli [5],6.25 µg/mL
same,MIC,Staphylococcus aureus [6],1.56 µg/mL
same,"viability at 24 h, 25 ug/ml",[7],67.7%
same,Activity,Cell membrane [8],Dose-dependent effect
same,MIC,Escherichia coli [9],12.5 µg/mL
same,MIC,Staphylococcus aureus [10],1.56 µg/mL
same,log(activity),Staphylococcus aureus [11],2.76
same,MIC,Staphylococcus aureus [12],1.56 µg/mL
same,MIC,Escherichia coli [13],6.25 µg/mL
same,MIC,Staphylococcus aureus [14],1.56 µg/mL
same,MIC,Staphylococcus aureus [15],1.56 µg/mL
same,Activity,Cell membrane [16],Active
same,MIC,Staphylococcus aureus [17],1.56 µg/mL
same,MIC,Staphylococcus aureus [18],1.56 µg/mL
same,Activity,Staphylococcus aureus [19],>99.99%
same,MIC,Staphylococcus aureus [20],1.56 µg/mL
same,MIC,Staphylococcus aureus [21],1.56 µg/mL
same,"viability at 24 h, 3.125 ug/ml",[22],98%
same,log(activity),Staphylococcus aureus [23],2.6
same,"viability at 24 h, 12.5 ug/ml",[24],69.9%
same,"viability at 24 h, 6.25 ug/ml",[25],76.3%
same,"viability at 24 h, 12.5 ug/ml",[26],84.8%
same,"viability at 24 h, 6.25 ug/ml",[27],89.3%
same,"viability at 24 h, 6.25 ug/ml",[28],79%
same,MIC,Staphylococcus aureus [29],1.56 µg/mL
same,MIC,Staphylococcus aureus [30],1.56 µg/mL
same,"viability at 24 h, 25 ug/ml",[31],55.2%
same,log(activity),Staphylococcus aureus [32],3.75
same,HC50 at 1 h,[33],276 µg/mL
same,MIC,Staphylococcus aureus [34],1.56 µg/mL
same,Activity,Staphylococcus aureus [35],Active
same,MIC,Escherichia coli [36],6.25 µg/mL
same,"viability at 24 h, 12.5 ug/ml",[37],64.2%
same,MIC,Staphylococcus aureus [38],1.56 µg/mL
same,MIC,Staphylococcus aureus [39],1.56 µg/mL
same,MIC,Staphylococcus aureus [40],1.56 µg/mL
same,Activity,Cell membrane [41],Dose-dependent effect
same,"viability at 24 h, 3.125 ug/ml",[42],95.6%
same,"viability at 24 h, 3.125 ug/ml",[43],82%
